Results as given in patent publication US9447157B2, “Nitration shielding peptides and methods of use thereof” (Augusta University Research Institute, Inc., priority 2013, dated 2016).

Tests used:
[1] = biological target: T1, PKG-1α (Homo sapiens, UniProt Q13976); assay: PKG-1α nitration (IP, 3-NT blot) in transfected HEK-293T cells; type: cell-based; conditions: HEK-293T expressing WT-PKG-1α, SIN-1 500 μM 30 min
T1 construct: transfected with an expression plasmid containing a full length WT-PKG-1α cDNA; made in house; host or cells: HEK-293T (methods); the results paragraph b527 says PASMC
T1 sequence (Q13976 2-671): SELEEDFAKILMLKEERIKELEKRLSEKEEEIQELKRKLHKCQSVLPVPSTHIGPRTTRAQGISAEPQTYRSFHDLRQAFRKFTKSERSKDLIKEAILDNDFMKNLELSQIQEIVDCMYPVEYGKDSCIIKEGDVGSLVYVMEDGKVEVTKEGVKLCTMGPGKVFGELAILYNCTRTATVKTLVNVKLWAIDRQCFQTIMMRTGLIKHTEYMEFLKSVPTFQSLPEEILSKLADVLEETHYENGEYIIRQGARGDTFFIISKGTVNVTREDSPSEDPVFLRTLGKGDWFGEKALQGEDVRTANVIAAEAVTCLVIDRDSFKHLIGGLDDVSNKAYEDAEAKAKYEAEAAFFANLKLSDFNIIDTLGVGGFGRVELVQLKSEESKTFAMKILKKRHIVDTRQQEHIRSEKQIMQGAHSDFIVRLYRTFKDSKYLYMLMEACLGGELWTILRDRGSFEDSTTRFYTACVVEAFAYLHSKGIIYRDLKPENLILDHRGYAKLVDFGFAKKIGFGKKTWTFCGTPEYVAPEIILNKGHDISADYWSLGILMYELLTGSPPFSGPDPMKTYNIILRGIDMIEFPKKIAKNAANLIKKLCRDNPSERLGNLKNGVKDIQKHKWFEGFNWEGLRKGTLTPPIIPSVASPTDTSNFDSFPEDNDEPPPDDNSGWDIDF
Method: (§1) Cells were homogenized in 3× weight/volume of IP buffer (25 mM Hepes, pH 7.5, 150 mM NaCl, 1% NP-40, 10 mM MgCl2, 1 mM EDTA, 2% glycerol, supplemented with protease inhibitor). The homogenates were then centrifuged at 20,000 g at 4° C. for 20 min, the supernatant was collected, and the protein concentration was quantified by the Bio-Rad DC Protein Assay. To 1000 μg of total protein, 4 μg of antibody against PKG-1α was added; the volume was brought to 1 ml with IP buffer, and the mixture was nutated at 4° C. overnight. To precipitate the bound protein, 30 μl of protein G plus agarose suspension (EMD biosciences, Inc., San Diego, Calif.) was added, and the samples were nutated for 2 h at 4° C. To collect the bead-bound antibody, the samples were then centrifuged at 2000 g for 5 min at 4° C., the supernatant was removed, and the beads were washed 3× with 500 μl of IP buffer. […]
(§2) To determine the role of tyrosine 247 and tyrosine 425 in mediating the nitration dependent inhibition of PKG-1α kinase activity, Y247F- and Y425F-PKG-1α mutants were generated and expressed in HEK-293T cells. […] Protein extracts were immunoprecipitated using an antibody raised against PKG-1α and the level of nitrated PKG-1α determined by probing the membranes with an antiserum raised against 3-NT. […]

[2] = test system: PKG-1α; assay: as above; type: cell-based, human; conditions: HEK-293T expressing Y247F- or Y425F-PKG-1α, SIN-1 500 μM 30 min
Method: as §1, §2

[3] = biological target: T1, PKG-1α; assay: PKG protein levels and PKG activity in transfected PASMC; type: cell-based; conditions: PASMC transfected with WT-PKG-1α, SIN-1 500 μM 48 h
Method: Therefore, the effect of these events were investigated in PASMC transiently transfected with expression plasmids containing WT- and Y247F-PKG-1α. The effect of nitration on pulmonary arterial smooth muscle cell (PASMC) growth and metabolism was determined. PASMC were transiently transfected with expression plasmids containing WT-PKG-1α, Y247F-PKG-1α or pDEST40 (as a control) for 20 h. Cells were then exposed or not to SIN-1 (500 μM, 48 h) and the effect on PKG protein levels (FIG. 17A) and activity determined (FIG. 17B).
Cells were prepared as previously described (Sud, N., et al., American Journal of Physiology 293, L1444-1453 (2007); Sharma, S., et al., American Journal of Physiology 294, L46-56 (2008)). Briefly, the cellular protein extracts were prepared by homogenizing the cells in lysis buffer (50 mM Tris-HCl, pH 7.6, 0.5% Triton X-100, and 20% glycerol) containing Halt protease inhibitor cocktail (Pierce, Rockford, Ill.). The extracts were then clarified by centrifugation (20,000 g for 20 min at 4° C.). […] Reactive bands were visualized using chemi-luminescence (Pierce Laboratories, Rockford, Ill.) on a Kodak 440CF image station. The band intensity was quantified using Kodak 1D image processing software. […]
Measurement of PKG Catalytic Activity Total PKG activity was determined using a non-radioactive immunoassay in cell lysates, according to the manufacturer's directions. […]

Nitration of WT-PKG-1α [1]: significantly increased
cGMP dependent increase in PKG activity, WT-PKG-1α cells [3]: attenuated
Substance: 3-morpholinosydnonimine N-ethylcarbamide [SIN-1]
Nitration levels of Y247F- or Y425F-PKG-1α [2]: no significant increases
